pEC50, pIC50: −log10 of the molar value.

The target of assay [1] is T1, HSV-1 helicase-primase (Human herpesvirus 1, UniProt P10189+P10236).
T1 construct: made in house; host or cells: Sf21 insect cells triply infected with recombinant baculoviruses
The assay is described as follows: HSV-1 DNA-dependent ATPase assay (inhibition of HSV-1 helicase-primase). The assay is classed as biochemical. The following applies: Group 1 Table 1. The procedure, abridged: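 HSV-1 helicase-primase holoenzyme (UL5/UL8/UL52, expressed in baculovirus-infected Sf21 cells, purified; 3 μg/mL) with 4 mM ATP and 25 μM primed single-stranded M13 DNA in HEPES pH 7.5, 5.5 mM MgCl2, 3.3% DMSO, 20 min at 34°. Released phosphate is read with malachite green at 650 nm, and activity is taken from the net absorbance change.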

The test system of assay [2] is HSV-1 strain F or KOS. The assay is described as follows: Inhibition of herpes simplex virus (HSV-1) replication in cell culture (BHK-21 cells, glycoprotein C ELISA). As to conditions: Human alphaherpesvirus 1, BHK-21; Group 1 Table 1. The assay is classed as cell-based. The procedure: B) Inhibition of Herpes Simplex Virus (HSV-1) Replication in Cell Culture
Assay: BHK-21 cells clone 13 (ATCC CCL10) were incubated for two days in 850 cm^2 roller bottles (2×10^7 cells/bottle) with α-MEM medium (Gibco Canada Inc., Burlington, Ontario, Canada) supplemented with 8% (v/v) fetal bovine serum (FBS, Gibco Canada, Inc.). The cells were trypsinized and then 3,000 cells in 100 μL of fresh medium were transferred into each well of a 96-well microtiter plate. The cells were incubated at 37° for a period of 3 days to reach a density of 50,000 cells per well. The cells were washed twice with 100 μL of α-MEM supplemented with 2% heat inactivated FBS and incubated for 1-2 hours in 100 μL of the same medium.
Thereafter, the cells were infected with HSV-1 strain F or KOS (multiplicity of infection=0.05 PFU/cell) in 50 μL of α-MEM supplemented with 2% heat inactivated FBS. Following one hour of virus absorption at 37°, the medium was removed and the cells were washed with α-MEM supplemented with 2% heat inactivated FBS (2×100 μL). The cells were incubated with or without 100 μL of the appropriate concentration of test reagent in α-MEM medium supplemented with 2% heat inactivated FBS. After 24 hours of incubation at 37°, the extent of viral replication was determined by an ELISA assay; for instance, the following assay that detects the late glycoprotein C of HSV-1.
Cells were fixed in the microtiter plate with 100 μL of 0.063% glutaraldehyde in phosphate buffered saline for 30 min at room temperature. The microtiter plate was then washed once with casein blocking solution and blocked with 200 μL of the same solution for one hour at room temperature. Thereafter, 100 μL of mAb C11 recognizing the glycoprotein C of HSV-1 (see E. Trybala et al., Journal of General Virology, 1994, 75, 743) was added to each well for two hours at room temperature. The plate was washed three times with phosphate buffered saline containing 0.05% polyoxyethylene (20) sorbitan monooleate. The cells were incubated with 100 μL of sheep anti-mouse IgG horseradish peroxidase for one hour at room temperature in the dark.
The plate was washed three times with 200 μL of the above-noted phosphate buffer saline preparation, and then once with 0.1 M sodium citrate (pH 4.5). Thereafter, 100 μL of orthophenylenediamine dihydrochloride (OPD, Gibco, Canada Inc.) was added to each well. The plate was agitated on a microplate shaker for 30 min in the dark. Color development was monitored at 450 nm using a microplate spectrophotometer.
SAS was used to calculate % inhibition of viral replication and to generate EC50 values.
In general terms: In an ELISA, binding on a coated surface is turned into a signal by an enzyme label.

T1 sequence (P10189 whole entry): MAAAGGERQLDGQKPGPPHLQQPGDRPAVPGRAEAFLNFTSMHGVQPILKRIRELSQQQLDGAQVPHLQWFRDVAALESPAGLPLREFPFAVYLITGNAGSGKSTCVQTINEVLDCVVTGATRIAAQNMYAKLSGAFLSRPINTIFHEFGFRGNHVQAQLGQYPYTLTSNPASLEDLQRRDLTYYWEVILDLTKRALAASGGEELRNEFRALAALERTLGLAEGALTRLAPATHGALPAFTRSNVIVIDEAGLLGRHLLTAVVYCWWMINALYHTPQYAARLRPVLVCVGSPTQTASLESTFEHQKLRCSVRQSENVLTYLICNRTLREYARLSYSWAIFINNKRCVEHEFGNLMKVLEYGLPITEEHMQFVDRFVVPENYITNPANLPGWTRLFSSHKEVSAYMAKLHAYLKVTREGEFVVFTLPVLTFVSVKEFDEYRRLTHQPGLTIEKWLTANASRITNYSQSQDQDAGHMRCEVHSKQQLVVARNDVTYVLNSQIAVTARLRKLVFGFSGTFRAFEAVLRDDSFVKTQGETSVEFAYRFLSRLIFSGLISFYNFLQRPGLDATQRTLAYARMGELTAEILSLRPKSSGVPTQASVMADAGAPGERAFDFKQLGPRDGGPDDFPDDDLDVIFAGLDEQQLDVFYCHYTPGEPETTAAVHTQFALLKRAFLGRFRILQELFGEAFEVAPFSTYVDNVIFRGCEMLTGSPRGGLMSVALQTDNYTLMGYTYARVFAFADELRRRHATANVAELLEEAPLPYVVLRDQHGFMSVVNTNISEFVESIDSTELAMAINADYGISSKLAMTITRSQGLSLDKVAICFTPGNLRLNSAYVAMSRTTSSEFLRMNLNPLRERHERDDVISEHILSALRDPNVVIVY
T1 sequence (P10192 whole entry, further chain): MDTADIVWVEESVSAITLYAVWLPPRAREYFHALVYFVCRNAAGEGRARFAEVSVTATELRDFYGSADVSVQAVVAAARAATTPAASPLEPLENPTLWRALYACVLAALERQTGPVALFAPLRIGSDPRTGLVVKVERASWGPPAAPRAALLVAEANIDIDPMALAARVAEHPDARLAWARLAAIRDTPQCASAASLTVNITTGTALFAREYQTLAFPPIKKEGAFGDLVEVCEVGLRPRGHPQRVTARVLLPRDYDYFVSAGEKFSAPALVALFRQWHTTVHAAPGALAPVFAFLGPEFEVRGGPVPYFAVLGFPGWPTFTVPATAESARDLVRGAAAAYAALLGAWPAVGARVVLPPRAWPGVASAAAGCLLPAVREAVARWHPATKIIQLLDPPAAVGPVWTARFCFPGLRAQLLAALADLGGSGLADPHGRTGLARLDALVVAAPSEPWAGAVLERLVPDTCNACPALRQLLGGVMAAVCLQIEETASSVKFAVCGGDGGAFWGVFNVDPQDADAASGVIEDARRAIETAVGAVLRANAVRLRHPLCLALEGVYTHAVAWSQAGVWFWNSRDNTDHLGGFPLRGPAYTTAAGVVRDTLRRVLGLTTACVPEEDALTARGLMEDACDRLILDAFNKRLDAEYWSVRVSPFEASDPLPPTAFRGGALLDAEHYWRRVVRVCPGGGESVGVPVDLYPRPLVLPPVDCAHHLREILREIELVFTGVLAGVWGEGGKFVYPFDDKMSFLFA
T1 sequence (P10236 whole entry): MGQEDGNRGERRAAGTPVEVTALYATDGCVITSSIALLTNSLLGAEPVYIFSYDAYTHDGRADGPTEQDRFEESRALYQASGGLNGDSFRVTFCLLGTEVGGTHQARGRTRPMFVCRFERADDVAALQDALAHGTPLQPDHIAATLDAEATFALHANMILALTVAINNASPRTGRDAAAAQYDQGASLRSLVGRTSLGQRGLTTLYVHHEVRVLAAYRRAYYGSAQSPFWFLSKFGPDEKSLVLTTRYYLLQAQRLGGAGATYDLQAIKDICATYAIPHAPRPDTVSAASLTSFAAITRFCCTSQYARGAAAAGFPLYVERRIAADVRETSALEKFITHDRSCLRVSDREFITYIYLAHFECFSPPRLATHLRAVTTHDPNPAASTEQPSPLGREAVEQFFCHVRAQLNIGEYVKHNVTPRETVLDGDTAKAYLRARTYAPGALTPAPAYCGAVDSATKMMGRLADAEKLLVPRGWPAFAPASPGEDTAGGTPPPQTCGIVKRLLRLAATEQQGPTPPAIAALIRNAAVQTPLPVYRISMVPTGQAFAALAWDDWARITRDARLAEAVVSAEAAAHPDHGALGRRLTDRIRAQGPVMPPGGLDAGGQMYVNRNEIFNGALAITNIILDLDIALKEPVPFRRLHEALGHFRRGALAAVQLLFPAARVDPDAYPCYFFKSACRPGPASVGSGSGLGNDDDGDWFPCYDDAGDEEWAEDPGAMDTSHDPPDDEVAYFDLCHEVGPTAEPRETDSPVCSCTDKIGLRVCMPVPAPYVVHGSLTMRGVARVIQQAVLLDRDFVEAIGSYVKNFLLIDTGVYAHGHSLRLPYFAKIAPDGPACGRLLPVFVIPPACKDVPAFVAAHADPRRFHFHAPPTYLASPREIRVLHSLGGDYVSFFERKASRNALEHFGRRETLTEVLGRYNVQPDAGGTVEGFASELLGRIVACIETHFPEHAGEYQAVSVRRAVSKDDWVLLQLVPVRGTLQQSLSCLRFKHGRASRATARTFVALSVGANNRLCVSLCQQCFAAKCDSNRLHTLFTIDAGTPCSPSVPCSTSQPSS

For `Nc1nc(-c2ccc(NC(=O)CN(CCc3ccccc3)C(=O)c3cccnc3)cc2)cs1` [Example 67], the pIC50 (as a rule, −log10 of the IC50, conventionally taken in molar units) in assay [1] is 6.46. In assay [2], the pEC50 (usually −log10 of the EC50, conventionally taken in molar units) is 6.68.

The values above are taken from patent US6348477B1, “Anti-herpesvirus compounds and methods for identifying, making and using same” (Boehringer Ingelheim(Canada) Ltd., priority 1995, dated 2002).
